Where “and” joins values, the source holds several entries; their conditions need not be identical. Equal entries are not always repeated.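 Grown in 96-well plates, cells were treated for 48 hours with each compound at five concentrations. Insufficient inhibition: endpoint recorded as highest concentration tested. GI50 marks 50% less growth. TGI denotes the concentration required for complete inhibition of growth.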
How the values were obtained:
Assay in all cases: DTP human tumour cell line panel, 48 h
786-0 renal = system: 786-0 renal
A498 renal = system: A498 renal
A549 NSCLC = system: A549 NSCLC
ACHN renal = system: ACHN renal
BT-549 breast = system: BT-549 breast
CAKI-1 renal = system: CAKI-1 renal
CCRF-CEM leukemia = system: CCRF-CEM leukemia
COLO 205 colon = system: COLO 205 colon
DU-145 prostate = system: DU-145 prostate
EKVX NSCLC = system: EKVX NSCLC
HCC-2998 colon = system: HCC-2998 colon
HCT-116 colon = system: HCT-116 colon
HCT-15 colon = system: HCT-15 colon
HL-60(TB) leukemia = system: HL-60(TB) leukemia
HOP-62 NSCLC = system: HOP-62 NSCLC
HOP-92 NSCLC = system: HOP-92 NSCLC
HS 578T breast = system: HS 578T breast
HT29 colon = system: HT29 colon
IGROV1 ovarian = system: IGROV1 ovarian
K-562 leukemia = system: K-562 leukemia
KM12 colon = system: KM12 colon
LOX IMVI melanoma = system: LOX IMVI melanoma
M14 melanoma = system: M14 melanoma
MALME-3M melanoma = system: MALME-3M melanoma
MCF7 breast = system: MCF7 breast
MDA-MB-231 breast = system: MDA-MB-231 breast
MDA-MB-435 = system: MDA-MB-435
MDA-N = system: MDA-N
MOLT-4 leukemia = system: MOLT-4 leukemia
NCI-H226 lung = system: NCI-H226 lung
NCI-H23 lung = system: NCI-H23 lung
NCI-H460 lung = system: NCI-H460 lung
NCI-H522 lung = system: NCI-H522 lung
NCI/ADR-RES ovarian = system: NCI/ADR-RES ovarian
OVCAR-3 ovarian = system: OVCAR-3 ovarian
OVCAR-4 ovarian = system: OVCAR-4 ovarian
OVCAR-5 ovarian = system: OVCAR-5 ovarian
OVCAR-8 ovarian = system: OVCAR-8 ovarian
PC-3 prostate = system: PC-3 prostate
RPMI-8226 leukemia = system: RPMI-8226 leukemia
RXF 393 renal = system: RXF 393 renal
SF-268 CNS = system: SF-268 CNS
SF-295 CNS = system: SF-295 CNS
SF-539 CNS = system: SF-539 CNS
SK-MEL-2 melanoma = system: SK-MEL-2 melanoma
SK-MEL-28 melanoma = system: SK-MEL-28 melanoma
SK-MEL-5 melanoma = system: SK-MEL-5 melanoma
SK-OV-3 ovarian = system: SK-OV-3 ovarian
SN12C renal = system: SN12C renal
SNB-19 CNS = system: SNB-19 CNS
SNB-75 CNS = system: SNB-75 CNS
SR leukemia = system: SR leukemia
SW-620 colon = system: SW-620 colon
T-47D breast = system: T-47D breast
TK-10 renal = system: TK-10 renal
U251 CNS = system: U251 CNS
UACC-257 melanoma = system: UACC-257 melanoma
UACC-62 melanoma = system: UACC-62 melanoma
UO-31 renal = system: UO-31 renal

SMILES: COC(=O)C1=C(C)NC(C)=C(C(=O)OC)C1c1ccc(NO)cc1
- TGI (786-0 renal): 28.9 µM
- TGI (A498 renal): 93.8 µM
- TGI (A549 NSCLC): 43.5 µM
- TGI (ACHN renal): 25.8 µM
- TGI (BT-549 breast): 26.5 µM
- TGI (CAKI-1 renal): 29.1 µM
- TGI (CCRF-CEM leukemia): > 27.3 µM
- TGI (COLO 205 colon): 29.2 µM
- TGI (DU-145 prostate): 35.8 µM
- TGI (EKVX NSCLC): 47.4 µM
- TGI (HCC-2998 colon): 35.1 µM
- TGI (HCT-116 colon): 21.8 µM
- TGI (HCT-15 colon): 26.5 µM
- TGI (HL-60(TB) leukemia): > 20.2 µM
- TGI (HOP-62 NSCLC): 32.9 µM
- TGI (HOP-92 NSCLC): 12.7 µM
- TGI (HS 578T breast): 47.3 µM
- TGI (HT29 colon): 29.8 µM
- TGI (IGROV1 ovarian): 30.9 µM
- TGI (K-562 leukemia): 8.07 µM
- TGI (KM12 colon): 31.6 µM
- TGI (LOX IMVI melanoma): 12.9 µM
- TGI (M14 melanoma): 27.9 µM
- TGI (MALME-3M melanoma): 25.8 µM
- TGI (MCF7 breast): 19.2 µM
- TGI (MDA-MB-231 breast): 26.6 µM
- TGI (MDA-MB-435): 28.7 µM
- TGI (MDA-N): 24.7 µM
- TGI (MOLT-4 leukemia): > 22.4 µM
- TGI (NCI-H226 lung): 47.1 µM
- TGI (NCI-H23 lung): 49.8 µM
- TGI (NCI-H460 lung): 33.9 µM
- TGI (NCI-H522 lung): 12.2 µM
- TGI (NCI/ADR-RES ovarian): 48.5 µM
- TGI (OVCAR-3 ovarian): 26.7 µM
- TGI (OVCAR-4 ovarian): 25 µM
- TGI (OVCAR-5 ovarian): 29.8 µM
- TGI (OVCAR-8 ovarian): 24.7 µM
- TGI (PC-3 prostate): 26.3 µM
- TGI (RPMI-8226 leukemia): 16.4 µM
- TGI (RXF 393 renal): 36 µM
- TGI (SF-268 CNS): 43.1 µM
- TGI (SF-295 CNS): 33.1 µM
- TGI (SF-539 CNS): 29.6 µM
- TGI (SK-MEL-2 melanoma): 34.2 µM
- TGI (SK-MEL-28 melanoma): 34.1 µM
- TGI (SK-MEL-5 melanoma): 30.1 µM
- TGI (SK-OV-3 ovarian): 50.3 µM
- TGI (SN12C renal): 33.6 µM
- TGI (SNB-19 CNS): > 78.8 µM
- TGI (SNB-75 CNS): 45.8 µM
- TGI (SR leukemia): > 20.4 µM
- TGI (SW-620 colon): 19.8 µM
- TGI (T-47D breast): 32.7 µM
- TGI (TK-10 renal): 30.9 µM
- TGI (U251 CNS): 29.9 µM
- TGI (UACC-257 melanoma): 15.7 µM
- TGI (UACC-62 melanoma): 26.8 µM
- TGI (UO-31 renal): 23.5 µM

SMILES: COc1cc(CC(C)C(C)Cc2ccc(O)c(OC)c2)ccc1O (stereo not given)
- GI50 (786-0 renal): 13.6 µM
- TGI (786-0 renal): 50 µM and 26.5 µM
- TGI (A498 renal): 32.8 µM
- TGI (A549 NSCLC): 50 µM and 27.1 µM
- TGI (ACHN renal): 37.9 µM and 28.2 µM
- TGI (BT-549 breast): 50 µM and 31.4 µM
- TGI (CAKI-1 renal): 50 µM and 31.9 µM
- GI50 (CCRF-CEM leukemia): 0.0496 µM
- TGI (CCRF-CEM leukemia): 40.2 µM and 20.8 µM
- GI50 (COLO 205 colon): 18.1 µM
- TGI (COLO 205 colon): > 50 µM and 32.9 µM
- GI50 (DU-145 prostate): 17 µM
- TGI (DU-145 prostate): 50 µM and 30.6 µM
- TGI (EKVX NSCLC): 41.5 µM and 30.3 µM
- TGI (HCC-2998 colon): 32.7 µM
- GI50 (HCT-116 colon): 14.6 µM
- TGI (HCT-116 colon): 50 µM and 27.7 µM
- GI50 (HCT-15 colon): 18 µM
- TGI (HCT-15 colon): 50 µM and 39.9 µM
- GI50 (HL-60(TB) leukemia): 0.0179 µM
- GI50 (HOP-62 NSCLC): 17.6 µM
- TGI (HOP-62 NSCLC): 50 µM and 33.6 µM
- GI50 (HOP-92 NSCLC): 14.5 µM
- TGI (HOP-92 NSCLC): 27.6 µM and 30.2 µM
- GI50 (HS 578T breast): 20 µM
- TGI (HS 578T breast): 22.7 µM and 49.8 µM
- GI50 (HT29 colon): 16.2 µM
- TGI (HT29 colon): 50 µM and 31.1 µM
- GI50 (IGROV1 ovarian): 16.4 µM
- TGI (IGROV1 ovarian): 43.1 µM and 33.7 µM
- GI50 (K-562 leukemia): 12.7 µM
- TGI (K-562 leukemia): 50 µM and 39 µM
- GI50 (KM12 colon): 17.6 µM
- TGI (KM12 colon): 50 µM and 33.8 µM
- GI50 (LOX IMVI melanoma): 17.9 µM
- TGI (LOX IMVI melanoma): 30.7 µM and 40.9 µM
- TGI (M14 melanoma): 47.5 µM and 30.2 µM
- GI50 (MALME-3M melanoma): 16.2 µM
- TGI (MALME-3M melanoma): 32.7 µM and 34 µM
- TGI (MCF7 breast): 38 µM
- TGI (MDA-MB-231 breast): 50 µM
- GI50 (MDA-MB-435): 15.1 µM
- TGI (MDA-MB-435): 38.4 µM and 29.6 µM
- GI50 (MDA-N): 13.7 µM
- TGI (MDA-N): 50 µM and 26.6 µM
- GI50 (MOLT-4 leukemia): 1.39 µM
- TGI (MOLT-4 leukemia): 22 µM and 13 µM
- GI50 (NCI-H226 lung): 16.8 µM
- TGI (NCI-H226 lung): 40.7 µM and 33.2 µM
- GI50 (NCI-H23 lung): 21.2 µM
- TGI (NCI-H23 lung): 50 µM and 44.4 µM
- GI50 (NCI-H460 lung): 18.3 µM
- TGI (NCI-H460 lung): 39.9 µM and 32.3 µM
- GI50 (NCI-H522 lung): 16.2 µM
- TGI (NCI-H522 lung): 21.4 µM and 33.5 µM
- TGI (NCI/ADR-RES ovarian): 50 µM and 41.6 µM
- TGI (OVCAR-3 ovarian): 50 µM and 32.5 µM
- GI50 (OVCAR-4 ovarian): 17.3 µM
- TGI (OVCAR-4 ovarian): 50 µM and 41.2 µM
- GI50 (OVCAR-5 ovarian): 14.4 µM
- TGI (OVCAR-5 ovarian): > 50 µM and 27.7 µM
- TGI (OVCAR-8 ovarian): 50 µM and 41 µM
- TGI (PC-3 prostate): 27.7 µM
- GI50 (RPMI-8226 leukemia): 19.4 µM
- TGI (RPMI-8226 leukemia): 17.4 µM and 45.8 µM
- GI50 (RXF 393 renal): 17.7 µM
- TGI (RXF 393 renal): 42.7 µM and 35.4 µM
- TGI (SF-268 CNS): 50 µM and 34.7 µM
- TGI (SF-295 CNS): 50 µM and 35.1 µM
- GI50 (SF-539 CNS): 17 µM
- TGI (SF-539 CNS): 50 µM and 31.6 µM
- TGI (SK-MEL-2 melanoma): 25 µM
- TGI (SK-MEL-28 melanoma): 50 µM and 35.5 µM
- GI50 (SK-MEL-5 melanoma): 14.9 µM
- TGI (SK-MEL-5 melanoma): 16.5 µM and 28.1 µM
- GI50 (SK-OV-3 ovarian): 16.9 µM
- TGI (SK-OV-3 ovarian): 50 µM and 33.4 µM
- GI50 (SN12C renal): 13.1 µM
- TGI (SN12C renal): 50 µM and 26 µM
- GI50 (SNB-19 CNS): 15.8 µM
- TGI (SNB-19 CNS): 50 µM and 29.6 µM
- GI50 (SNB-75 CNS): 18.4 µM
- TGI (SNB-75 CNS): 50 µM and 34.5 µM
- GI50 (SR leukemia): 6.41 µM
- TGI (SR leukemia): 18.8 µM and 24.9 µM
- TGI (SW-620 colon): 50 µM and 35 µM
- GI50 (T-47D breast): 21.9 µM
- TGI (T-47D breast): 50 µM and 50.6 µM
- GI50 (TK-10 renal): 18.2 µM
- TGI (TK-10 renal): 50 µM and 32.7 µM
- TGI (U251 CNS): 50 µM
- GI50 (UACC-257 melanoma): 19.2 µM
- TGI (UACC-257 melanoma): 50 µM and 37.3 µM
- GI50 (UACC-62 melanoma): 14.4 µM
- TGI (UACC-62 melanoma): 50 µM and 27.6 µM
- TGI (UO-31 renal): 25.3 µM

Reference: PubChem BioAssay (NCI)
